Results: paper PMC3443622 (2012)

Legend:
ABCG2 [1] = target: T1, ABCG2 (Homo sapiens, UniProt Q9UNQ0); assay type: cell-based
T1 sequence (Q9UNQ0 1-655): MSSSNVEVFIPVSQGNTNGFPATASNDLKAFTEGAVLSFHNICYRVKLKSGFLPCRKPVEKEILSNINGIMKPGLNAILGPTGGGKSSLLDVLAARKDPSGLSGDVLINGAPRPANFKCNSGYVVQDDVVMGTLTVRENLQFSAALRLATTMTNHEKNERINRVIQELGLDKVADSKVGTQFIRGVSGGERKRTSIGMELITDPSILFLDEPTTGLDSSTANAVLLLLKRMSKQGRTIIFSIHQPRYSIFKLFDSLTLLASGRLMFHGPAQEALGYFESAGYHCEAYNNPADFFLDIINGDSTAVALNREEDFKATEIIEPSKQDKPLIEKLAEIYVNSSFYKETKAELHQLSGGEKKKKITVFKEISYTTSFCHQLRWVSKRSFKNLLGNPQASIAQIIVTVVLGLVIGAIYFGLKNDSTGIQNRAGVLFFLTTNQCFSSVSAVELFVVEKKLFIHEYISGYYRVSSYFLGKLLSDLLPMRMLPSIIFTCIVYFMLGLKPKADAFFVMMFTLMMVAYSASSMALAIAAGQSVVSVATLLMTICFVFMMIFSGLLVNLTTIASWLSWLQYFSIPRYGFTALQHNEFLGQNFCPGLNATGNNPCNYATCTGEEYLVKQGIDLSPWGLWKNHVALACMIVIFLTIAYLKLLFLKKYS

ABCG2 [2] = target: T1, ABCG2; test: intracellular accumulation in ABCG2-transfected HEK293 cells; assay type: cell-based

Row | SMILES | ATP-dependent uptake into membrane vesicles (ABCG2 [1]) | intracellular accumulation in ABCG2-transfected HEK293 cells (ABCG2 [2])
1 | CN(Cc1cnc2nc(N)nc(N)c2n1)c1ccc(C(=O)N[C@@H](CCC(=O)O)C(=O)O)cc1 [[3H]-methotrexate] | using membrane vesicles to determine the rate of ATP-dependent uptake of [^3H]-methotrexate, another substrate of ABCG2 | –
2 | O=C1c2c(O)ccc(O)c2C(=O)c2c(NCCNCCO)ccc(NCCNCCO)c21 [[3H]-mitoxantrone] | – | the intracellular levels of [^3H]-mitoxantrone, a known substrate of ABCG2 was measured in the presence or absence of VKJP1 or VKJP3
